# Data from US8658190B2 (priority 2005, dated 2014).
# Read-outs that look alike come from different tables or passages of the source.
# Key:
# mycobacteria [1] = experiment: mycobactericidal / tuberculocidal activity (exposure time); format: cell-based
# [2] = stability of glutaraldehyde concentration in solution; format: physicochemical; details: composition buffered to about pH 7.3 to 7.9
# bacterial spores = details: background statement, cited from earlier work
# mycobacteria [3] = details: 25 C, background statement; cited from earlier work
structure (smiles),measurement,setting,value
CCO [Alcohol],tuberculocidal activity,"mycobacteria [1]; alcohol alone, 5% to 20% by volume",not tuberculocidal
O=CCCCC=O [Glutaraldehyde],tuberculocidal activity,"mycobacteria [1]; 2.0% glutaraldehyde alone, 20° C., exposure time of 10 min",nor is 2.0% glutaraldehyde tuberculocidal
same,time glutaraldehyde is stable during use and re-use,[2],about 14 days
same,time to kill bacterial spores,bacterial spores; 25 C,about 10.0 hrs
same,time to kill 6 log 10 of mycobacteria,mycobacteria [3],about 45 min
"O=Cc1ccccc1C=O [Ortho-phthaladehyde, ortho-phthalaldehyde]",time to kill bacterial spores,bacterial spores; temperature not given,about 32 hrs
